Experimental data as given in US7683095B2, “Compositions and methods of treating, reducing and preventing cardiovascular diseases and disorders with polymethoxyflavones” (The United States of America as represented by the …, priority 1998, dated 2010).
Converted amounts (≈) assume the structure as drawn.

Test system: apolipoprotein B (apoB) production
Experiment: apo B secretion into medium of HepG2 cells, competitive ELISA
Assay type: cell-based, human
Conditions: for inhibitory effect on apo-B production: result in words, these results along with other preliminary studies, alone or in combination; for % apo B reduction / Apo B μg/mL medium / % apo B in medium: HepG2, 24 hours; for % apo B in medium: percent of control; for IC50: Homo sapiens, apo B in medium of HepG2 cells, 24 hours incubation, read-out: IC50 concentrations
Method: Limocitrin derivatives, quercetin derivatives, naturally occurring polymethoxyflavones, and tocotrienols were tested for cholesterol lowering activity in HepG2 cells. Confluent HepG2 cells were preincubated for 24 hours in a lipoprotein-free medium (Minimum Essential Medium (MEM), Life Technologies, Burlington, Canada) in which the fetal bovine serum (Life Technologies, Burlington, Canada) was replaced by bovine serum albumin (BSA, Life Technologies, Burlington, Canada) to inhibit cell proliferation and to stimulate synthesis of cholesterol-containing lipoproteins. Cells were subsequently incubated for another 24 hours in the same medium in the presence or absence of limocitrin derivatives, quercetin derivatives, naturally occurring polymethoxyflavones, or tocotrienols (See Table 1) at the highest concentrations sustaining about 100%±10% cell viability, as determined by the 3-(4,5-dimethylthiazol-2-yl)-2,5-diphenyltetrazolium bromide (MTT) viability assay. The test compounds were added to the cell culture medium after solubilization in dimethyl sulfoxide (DMSO) and filter sterilized. […] For each experiment, equal concentrations of solvent were added to all treatment media and to a control medium (without tested compounds). At the end of the incubation, culture media were collected and the concentration of the LDL structural protein, apo-B, was measured by ELISA. The competitive Elisa assay kit for determination of human apo B (Ortho Diagostics, LaJolla, Calif.) measures medium apo B concentrations within the range 0.4-0.031 μg/mL. In this assay, microtiter 96-well plates are coated with monoclonal antibody against human apo B, which binds apo B epitope from human LDL (standard curve, control sera with high and low content of human apo B) or from LDL-like lipoproteins secreted by HepG2 cells (tested media, usually 2× diluted with Ca^2+- and […]-free phosphate buffered saline (PBS)). After the exposure, a fraction of antibody is blocked and the remaining amount is captured by a subsequent incubation with conjugate containing a secondary antibody (against anti-human apo B) coupled with horseradish peroxidase. The following incubation with horseradish peroxidase substrate, o-phenylenediamine, produces a yellow color change proportional to the amount of apo B present, and the optical density of samples is measured at 490-492 nm against the blank PBS/conjugate wells. To determine whether evaluated compounds cross-react with Elisa assay, in separate study, various doses of compounds were tested in presence of cell-free culture media.
Amount of lipoprotein-associated apo-B in the media net apo-B secretion) was determined as described above, and calculated per mg cell protein. Net apo B3 secretion was also expressed as percent of control (amount of apo B in medium from cells incubated without tested compounds).

[1] = concentration 25.0 μg/mL medium
[2] = concentration 50.0 μg/mL medium
[3] = concentration 6.25 μg/mL medium
[4] = concentration 12.5 μg/mL medium
[5] = concentration 3.12 μg/mL medium

Compound	inhibitory effect on apo-B production	% apo B reduction [1] [%]	Apo B μg/mL medium [1] [μg/mL medium]	% apo B in medium [1] [%]	% apo B reduction [3] [%]	Apo B μg/mL medium [3] [μg/mL medium]	% apo B reduction [4] [%]	Apo B μg/mL medium [4] [μg/mL medium]	% apo B in medium [3] [%]	% apo B in medium [4] [%]	further results
COc1ccc(-c2cc(=O)c3c(O)c(OC)c(OC)c(OC)c3o2)cc1OC [5-desmethylnobiletin, 5-hydroxy-6,7,8,3′,4′-pentamethoxyflavone]	inhibitory effects										
COc1ccc(-c2cc(=O)c3c(O)c(OC)c(OC)cc3o2)cc1OC [5-desmethylsinensetin, 5-hydroxy-6,7,3′,4′-tetramethoxyflavone]	inhibitory effects	27	0.84 ± 0.21	73 ± 18							% apo B reduction [2]: 64%; Apo B μg/mL medium [2]: 0.41 ± 0.20 μg/mL medium; % apo B in medium [2]: 36 ± 1%
COc1ccc(-c2oc3c(OC)c(OC)c(OC)c(OC)c3c(=O)c2OC)cc1OC [Heptamethoxyflavone, 3,5,6,7,8,3′,4′-heptamethoxyflavone]	inhibitory effects	81	0.048 ± 0.01	19 ± 3	45	0.138 ± 0.02	68	0.080 ± 0.02	55 ± 5	32 ± 9	% apo B reduction [2]: 82%; Apo B μg/mL medium [2]: 0.045 ± 0.01 μg/mL medium; IC50: 7.8 µg/mL (≈ 18 µM); % apo B in medium [2]: 18 ± 2%
COc1ccc(-c2cc(=O)c3c(OC)c(OC)c(OC)cc3o2)cc1OC [Sinensetin, 5,6,7,3′,4′-pentamethoxyflavone]	inhibitory effects	62	0.35 ± 0.04	38 ± 5	25	0.70 ± 0.13	42	0.54 ± 0.04	75 ± 14	58 ± 4	% apo B reduction [2]: 72%; Apo B μg/mL medium [2]: 0.26 ± 0.02 μg/mL medium; IC50: 17.8 µg/mL (≈ 47.8 µM); % apo B in medium [2]: 28 ± 5%
COc1ccc(-c2cc(=O)c3c(OC)c(OC)c(OC)cc3o2)cc1 [Tetra-O-methyl-Scutellarein]					29	0.305 ± 0.03	41	0.255 ± 0.06	71 ± 7	59 ± 13	
CCOc1ccc(-c2oc3c(OC)c(OCC)cc(OCC)c3c(=O)c2OCC)cc1OC [limocitrin-3,5,7,4′-tetraethylether]	inhibitory effects										
COc1ccc(-c2oc3c(OC)c(OC)cc(OC)c3c(=O)c2OC)cc1OC [limocitrin-3,5,7,4′-tetramethylether, 3,5,7,8,3′,4′-hexamethoxyflavone]	inhibitory effects										
COc1ccc(-c2oc3c(OC)c(OC)cc(O)c3c(=O)c2OC)cc1OC [limocitrin-3,7,4′-trimethylether, 5-hydroxy-3,7,8,3′,4′-pentamethoxyflavone]	inhibitory effects										
COc1ccc(-c2oc3c(OC)c(OC)cc(OC(C)=O)c3c(=O)c2OC)cc1OC [limocitrin-3,7,4′-trimethylether-5-acetate]	inhibitory effects										
COc1ccc(-c2cc(=O)c3c(OC)c(OC)c(OC)c(OC)c3o2)cc1OC [nobiletin, 5,6,7,8,3′,4′-hexamethoxyflavone]	inhibitory effects	82	0.10 ± 0.01	18 ± 1	33	0.37 ± 0.09	68	0.175 ± 0.03	67 ± 16	32 ± 6	% apo B reduction [2]: 83%; Apo B μg/mL medium [2]: 0.095 ± 0.01 μg/mL medium; IC50: 4.9 µg/mL (≈ 12.2 µM); % apo B in medium [2]: 17 ± 1%
COc1cc(O)c2c(=O)c(OC)c(-c3ccc(OC)c(OC)c3)oc2c1 [quercetin tetramethylether, 5-hydroxy-3,7,3′,4′-tetramethoxyflavone]	inhibitory effects										
COc1c(-c2ccc(OCc3ccccc3)c(OCc3ccccc3)c2)oc2cc(OCc3ccccc3)cc(OC)c2c1=O [quercetin-3,5-dimethylether-7,3′,4′-tribenzyl ether]	inhibitory effects										
COc1cc(OC)c2c(=O)c(O)c(-c3ccc(OC)c(OC)c3)oc2c1 [quercetin-5,7,3′,4′-tetramethylether, 3-hydroxy-5,7,3′,4′-tetramethoxyflavone]	inhibitory effects										
COc1cc(OC)c2c(=O)c(OC(C)=O)c(-c3ccc(OC)c(OC)c3)oc2c1 [quercetin-5,7,3′,4′-tetramethylether-3-acetate]	inhibitory effects										
COc1ccc(-c2cc(=O)c3c(OC)c(OC)c(OC)c(OC)c3o2)cc1 [tangeretin, 5,6,7,8,4′-pentamethoxyflavone]	inhibitory effects	86	0.035 ± 0.01	14 ± 1	78	0.055 ± 0.01	81	0.048 ± 0.01	22 ± 2	19 ± 2	% apo B reduction [5]: 68%; Apo B μg/mL medium [5]: 0.080 ± 0.02 μg/mL medium; IC50: 2.5 µg/mL (≈ 6.71 µM); % apo B in medium [5]: 32 ± 8%
COc1ccc(-c2cc(=O)c3c(OC)cc(OC)c(OC)c3o2)cc1 [tetra-O-methylisoscutellarein, 5,7,8,4′-tetramethoxyflavone]	inhibitory effects										
